Assay results reported in ChEMBL document CHEMBL5331060, “Bisindole natural products: A vital source for the development of new anticancer drugs” (Eur J Med Chem, 2022).
≈ marks a conversion by molar mass, not a printed value. Blank lines part the entries; values can stand above or below the compound they belong to.

Columns and labels:
HT-29 = test: Antiproliferative activity against human HT-29 cells assessed as inhibition of cell growth incubated for 48 hrs by SRB assay; type: functional, cell-based
LS174T = test: Antiproliferative activity against human LS174T cells assessed as inhibition of cell growth incubated for 24 hrs by SRB assay; type: functional, cell-based
CAKI-2 = test: Antiproliferative activity against human CAKI-2 cells assessed as inhibition of cell growth incubated for 24 hrs by SRB assay; type: functional, cell-based; settings: CAKI-2, 24 h
[1] = Antiproliferative activity against human StMl1 1a cells assessed as inhibition of cell growth incubated for 24 hrs by SRB assay; type: functional, cell-based
MCF7 [2] = test: Antiproliferative activity against human MCF7 cells assessed as inhibition of cell growth incubated for 24 hrs by SRB assay; type: functional, cell-based; settings: MCF7, 24 h
[3] = Antiproliferative activity against human AV3 cells assessed as inhibition of cell growth incubated for 72 hrs by MTT assay; type: functional, cell-based; settings: AV3, 72 h
MDA-MB-231 = test: Antiproliferative activity against human MDA-MB-231 cells assessed as inhibition of cell growth incubated for 72 hrs by MTT assay; type: functional, cell-based; settings: MDA-MB-231, 72 h
Huh-7 = test: Antiproliferative activity against human Huh-7 cells assessed as inhibition of cell growth incubated for 72 hrs by MTT assay; type: functional, cell-based; settings: Huh-7, 72 h
NCI-H460 = test: Antiproliferative activity against human NCI-H460 cells assessed as inhibition of cell growth by MTT assay; type: functional, cell-based
HepG2 [4] = test: Antiproliferative activity against human HepG2 cells assessed as inhibition of cell growth by MTT assay; type: functional, cell-based
HCT-116 = test: Antiproliferative activity against human HCT-116 cells assessed as inhibition of cell growth incubated for 24 hrs by MTT assay; type: functional, cell-based; settings: HCT-116, 24 h
P388 = test: Antiproliferative activity against mouse P388 cells assessed as inhibition of cell growth; type: functional, cell-based
MCF7 [5] = test: Antiproliferative activity against human MCF7 cells assessed as inhibition of cell growth; type: functional, cell-based
SMMC-7721 [6] = test: Antiproliferative activity against human SMMC-7721 cells assessed as inhibition of cell growth; type: functional, cell-based
A549 [7] = test: Antiproliferative activity against human A549 cells assessed as inhibition of cell growth; type: functional, cell-based
HL-60 [8] = test: Antiproliferative activity against human HL-60 cells assessed as inhibition of cell growth; type: functional, cell-based
SW480 = test: Antiproliferative activity against human SW480 cells assessed as inhibition of cell growth; type: functional, cell-based
PANC-1 = test: Antiproliferative activity against human PANC-1 cells assessed as inhibition of cell growth incubated for 48 hrs by MTT assay; type: functional, cell-based; settings: PANC-1, 48 h
A549 [9] = test: Antiproliferative activity against human A549 cells assessed as inhibition of cell growth incubated for 48 hrs by MTT assay; type: functional, cell-based; settings: A549, 48 h
SMMC-7721 [10] = test: Antiproliferative activity against human SMMC-7721 cells assessed as inhibition of cell growth incubated for 48 hrs by MTT assay; type: functional, cell-based; settings: SMMC-7721, 48 h
HL-60 [11] = test: Antiproliferative activity against human HL-60 cells assessed as inhibition of cell growth incubated for 48 hrs by MTT assay; type: functional, cell-based; settings: HL-60, 48 h
MCF7 [12] = test: Antiproliferative activity against human MCF7 cells assessed as inhibition of cell growth incubated for 48 hrs by MTT assay; type: functional, cell-based; settings: MCF7, 48 h
SK-BR-3 = test: Antiproliferative activity against human SK-BR-3 cells assessed as inhibition of cell growth incubated for 48 hrs by MTT assay; type: functional, cell-based; settings: SK-BR-3, 48 h
L1210 = test: Antiproliferative activity against mouse L1210 cells assessed as inhibition of cell growth; type: functional; settings: L1210, read-out: ED50
HepG2 [13] = test: Antiproliferative activity against human HepG2 cells assessed as inhibition of cell growth incubated for 24 hrs by colorimetric method; type: functional, cell-based; settings: HepG2, 24 h

Structure (SMILES): COC(=O)c1[nH]cc2c1[C@]1(CNc3ccc(Cl)cc31)c1[nH]c3ccc(Cl)cc3c1-2
IC50 (NCI-H460): 15 µg/mL (≈ 35.4 µM)
IC50 (HepG2 [4]): 6 µg/mL (≈ 14.1 µM)

Structure (SMILES): O=C1C[C@@H]2c3ccc(O)c(O)c3[C@@]3(Nc4ccccc4C3=O)[C@@]23C(=O)c2ccccc2N13
IC50 (HCT-116): 78 µM

Structure (SMILES): COc1cc2c(cc1CC(C(C)=O)[C@@H]1C[C@H]3c4c(c5ccccc5n4C)C[C@@H]([C@@H]1CO)N3C)c1c(n2C)[C@@H]2C[C@H]3C(C(C)=O)=COC[C@H]3[C@H](C1)N2C (stereo partly drawn)
IC50 (P388): 12.3 µg/mL (≈ 17.4 µM)

Structure (SMILES): C/C=C1\CN(C)[C@H]2Cc3c([nH]c4ccccc34)[C@H](c3c(O)ccc4c5c([nH]c34)[C@]3(C(=O)OC)C[C@@H]4C[C@H](CC)[C@@H]3N(CC5)C4)C[C@H]1[C@]2(CO)C(=O)OC
IC50 (MCF7 [5]): 0.17 µM
IC50 (SMMC-7721 [6]): 0.17 µM
IC50 (A549 [7]): 0.17 µM
IC50 (HL-60 [8]): 0.17 µM
IC50 (SW480): 0.17 µM

Structure (SMILES): CCC12CCCN3CC[C@@]4(OC)c5cc([C@@H]6C[C@@]7(CC)CCCN8CCc9c(n6c6ccccc96)[C@H]87)c(O)cc5N(CCC1)C324 (stereo partly drawn)
IC50 (PANC-1): 0.5 µM
IC50 (A549 [9]): 0.5 µM
IC50 (SMMC-7721 [10]): 0.5 µM
IC50 (HL-60 [11]): 0.5 µM
IC50 (MCF7 [12]): 0.5 µM
IC50 (SK-BR-3): 0.5 µM

Structure (SMILES): CN1C[C@H](c2c[nH]c3cc(Br)ccc23)NC[C@H]1c1c[nH]c2cc(Br)ccc12
EC50 (L1210): 10 µg/mL (≈ 20.5 µM)

Structure (SMILES): COC(=O)/C1=C/c2c([nH]c3ccccc23)/C(C(=O)OC)=C\c2c1[nH]c1ccccc21 [CAULERPIN]
IC50 (HepG2 [13]): 24.6 µg/mL (≈ 61.7 µM)

The next lines start with results.

IC50 (HT-29; HT-29, 48 h): 8 µM
IC50 (MCF7 [2]): 2 µM
Structure (SMILES): C/C=C1/CN2CC[C@@]34C[C@H]5[C@@H]6C[C@H]7c8c(c9ccccc9n8C)C[C@@H]([C@@H]6CO[C@@]5(C)O[C@@]35[C@@H]2C[C@@H]1[C@@H](C(=O)OC)N5c1ccccc14)N7C
IC50 (LS174T): 2 µM
IC50 (CAKI-2): 2 µM
IC50 [1]: 2 µM

IC50 (MDA-MB-231): 9.8 µM
IC50 (Huh-7): 9.8 µM
Structure (SMILES): C/C=C1/CCN2CC[C@@]34c5cc6c(cc5N(C)[C@]35OC[C@]4(C(=O)OC)[C@@H]1[C@H]25)O[C@@]12[C@@H]3C[C@H]4/C(=C\C)CN3CC[C@]1(C6)c1ccccc1N2[C@@H]4C(=O)OC
IC50 [3]: 9.8 µM

IC50 (MCF7 [2]): 2 µM
Structure (SMILES): C/C=C1/CN2CC[C@@H]3c4ccccc4N4[C@H](C(=O)OC)[C@H]1C[C@H]2[C@]34/C=C/C1=COC[C@@H]2[C@H]1C[C@H]1c3c(c4ccccc4n3C)C[C@@H]2N1C
IC50 (LS174T): 2 µM
IC50 (CAKI-2): 2 µM
IC50 [1]: 2 µM

EC50 (HT-29; HT-29, time 48 hrs, read-out: ED50 (the source's name)): 6.5 µM
Structure (SMILES): C/C=C1/C[N+]2(C)CC[C@@]34C[C@H]5[C@@H]6C[C@H]7c8c(c9ccccc9n8C)C[C@@H]([C@@H]6CO[C@@]5(C)O[C@@]35[C@@H]2C[C@@H]1[C@@H](C(=O)OC)N5c1ccccc14)N7C (stereo partly drawn)

IC50 (MDA-MB-231): 9.8 µM
IC50 (Huh-7): 9.8 µM
Structure (SMILES): C/C=C1/CCN2CC[C@@]34c5cc6c(cc5N(C)[C@]35OC[C@]4(C(=O)OC)[C@@H]1[C@H]25)O[C@@]12[C@@H]3C[C@H]4/C(=C\C)CN3CC[C@]1(C6)c1ccccc1N2[C@]4(CO)C(=O)OC
IC50 [3]: 9.8 µM
